In brackets after ≈: the same amount, converted by molar mass.
Assays:
Staphylococcus epidermis = assay: Prevention effect for artificial infection (abdominal injection of bacteria); format: in vivo, Sebastes schlegeli; conditions: for Mortality during Cultivation: dead of 20 fish
Protocol: The water temperature was maintained at 20° C. (±2° C. ) throughout the experiment. […]
Bastardhalibut and Sebastes schlegeli were infected by […] Staphylococcus epidermis through abdominal injection with the same method of fish breeding; δ-aminolevulinic acid treatment and artificial carried out in Experiment 1 and 2. Each experimental fish was moved to fish tanks for monitoring and monitored for mortality according to infection for 2 weeks. […] The treated group, with δ-aminolevulinic acid by tank administraion method and oral administration method, has shown high viability.

Streptococcus sp. = assay: MIC assay by flat drug disc method; format: cell-based; conditions: line printed Staphylococcus sp. (first of two), prepared by the inventors
Protocol: (§1) Pathogenic index bacteria used in this experiment are Edwardsiella tard, Streptococcus sp., Staphylococcus sp., Staphylococcus epidermidis, Pseudomonas sp., Vibrio anguillarum which are collected from the marine fish farm nearby Yeosu. In solid culture, they were cultured in TSA (tryptic soy agar) supplemented with 0.2% NaCl flat media and in liquid culture, they were prepared by culturing in BHI broth for 24 hrs and setting the O.D. value as 1.0. δ-aminolevulinic acid used in this experiment were one on the market (Sigma) and one formulated by inventors of the present invention (Korean patent application No. 1998-41898). Each 0.167 g δ-aminolevulinic acid were dissolved in 1.0 mL sterilized distilled water was used as undiluted solution. 1.0 M δ-aminolevulinic acid was 2-fold diluted with BHI broth by stages up to 64-fold and prepared for test solution to examine pathogenic bacteria proliferation-prohibiting effect. […] In control group, instead of δ-aminolevulinic acid, BHI broth bacteria suspension were mixed with (1:1) and then observed with the same method above. MIC assay by δ-aminolevulinic acid for major pathogenic bacteria of marine cultivating fishes, Edwardsiella tard, Streptococcus sp., Staphylococcus sp., Staphylococcus epidermidis, Pseudomonas sp., Vibrio anguillarum was carried out by flat drug disc method. 100 μL of each bacteria in a culture solution was mixed with fixed amount of top agar and coated to TSA agar. 1.0 M δ-aminolevulinic acid solution was diluted by 2 folds in PBS and 10 μL of each dilution were absorbed to sterilized disc. After incubation at 23˜25° C. for 2˜3 days, antibacterial effect was indicated by measuring the size (mm) of clear zone. In control group, PBS was absorbed into disc instead of δ-aminolevulinic acid dilution solution with the same amount and observed. From the result of this experiment using δ-aminolevulinic acid on the market, proliferation-inhibiting effects of pathogenic bacteria according to δ-aminolevulinic acid concentration are shown in Table 2a (Edwardsiella tard) and Table 2b (Streptococcus sp.). Below 1/32 fold (31 mM) of δ-aminolevulinic acid dilution rate, proliferation of both bacteria was inhibited. […] The experimental result of δ-aminolevulinic acid prepared by the inventors has shown in Table 3 and no difference in effects from δ-aminolevulinic acid on the market.

Pseudomonas sp. [1] = assay: MIC assay by flat drug disc method; format: cell-based; conditions: prepared by the inventors
Protocol: as §1

Staphylococcus sp. [2] = assay: MIC assay by flat drug disc method; format: cell-based; conditions: Staphylococcus sp. (second of two lines); prepared by the inventors
Protocol: as §1

Vibrio anguillarum = assay: MIC assay by flat drug disc method; format: cell-based; conditions: prepared by the inventors
Protocol: as §1

Edwardsiella tarda = assay: MIC assay by flat drug disc method; format: cell-based; conditions: prepared by the inventors
Protocol: as §1

[3] = test system: Staphylococcus epidermidis; assay: MIC assay by flat drug disc method; format: cell-based; conditions: prepared by the inventors
Protocol: as §1

Pseudomonas sp. [4] = assay: Prevention effect for artificial infection (abdominal injection of bacteria); format: in vivo, Sebastes schlegeli; conditions: for Mortality during Cultivation: dead of 20 fish
Protocol: The water temperature was maintained at 20° C. (±2° C. ) throughout the experiment.
As the same method of above Experiment 1, fishes of both control group and experiment group were prepared and artificially infected by direct abdominal injection of Edwardsiella tarda 10^5 CFU per 1 fish. Each experimental fish was moved to fish tanks for monitoring and monitored for mortality according to infection for 2 weeks and viability after 2 weeks.
Bastardhalibut and Sebastes schlegeli were infected by Pseudomonas sp. through abdominal injection with the same method of fish breeding; δ-aminolevulinic acid treatment and artificial infection carried out in Experiment 1 and 2. Each experimental fish was moved to fish tanks for monitoring and monitored for mortality according to infection for 2 weeks.

Pseudomonas sp. [5] = assay: Treatment effect of infected fry by digestion in breeding water; format: in vivo, Sebastes schlegeli; conditions: 50 fish
Protocol: (§2) To be used as experimental fish in this example, fry of Bastardhalibut and Sebastes schlegeli (mean body weight 2 g), 50 per each breeding tank, were preliminary-bred for 1 week and stabilized. […] The artificial infection methods were carried out by the digestion method. Pathogenic organisms were applied into fish tanks and digested in seawater, wherein the concentration of organisms has adjusted to 10^4 CFU/mL for an hour, and infected. Treatment conditions are as follows. After artificial infection. Infected fishes were moved to fish tanks and kept in the infection period for 3 days. On the fourth day of infection, 0.1, 1.0, 5 and 10 ppm δ-aminolevulinic acid were introduced to use as breeding water. Fish was bred in aerobic condition for 1˜24 hours without exchanging water and then, bred for 2 weeks after exchanging with clean seawater. Then, they were monitored to check for the mortality of fish according to infection. In the control groups, after each bacteria were identically introduced through the digestion method, mortality of Bastardhalibut and Sebastes schlegeli according to bacteria infection was identified while breeding with non-treated condition of δ-aminolevulinic acid. As a result of this experiment, δ-aminolevulinic acid-treated groups have shown high viability in both Bastardhalibut (Table 12˜Table 15) and Sebastes schlegeli (Table 16˜Table 19).

Staphylococcus sp. [6] = assay: as above; format: in vivo, Sebastes schlegeli; conditions: 50 fish
Protocol: as §2

[7] = orally, 1.0 ppm in feed, Sebastes schlegeli
[8] = orally, 10 ppm in feed, Sebastes schlegeli
[9] = orally, 100 ppm in feed, Sebastes schlegeli
[10] = to fish tanks, 0.01 ppm, Sebastes schlegeli
[11] = to fish tanks, 0.1 ppm, Sebastes schlegeli
[12] = to fish tanks, 1.0 ppm, Sebastes schlegeli
[13] = digestion 0.1 ppm from 4th day of infection, Sebastes schlegeli fry
[14] = digestion 1.0 ppm from 4th day of infection, Sebastes schlegeli fry

Which Viability (Staphylococcus epidermis; orally, 0.1 ppm in feed) does the source give for `NCC(=O)CCC(=O)O` [δ-aminolevulinic acid] here?
Its Viability is 50%.

And the “Mortality during Cultivation” value (Staphylococcus epidermis; orally, 0.1 ppm in feed)?
Its value is 10.

And the Viability (Staphylococcus epidermis; orally, 1.0 ppm in feed)?
Its Viability is 50%.

What about the “Mortality during Cultivation” value (Staphylococcus epidermis; orally, 1.0 ppm in feed) of the same compound?
The value was 10.

And the Viability (Staphylococcus epidermis; orally, 10 ppm in feed)?
Its Viability is 75%.

What about the “Mortality during Cultivation” value (Staphylococcus epidermis; orally, 10 ppm in feed) of the same compound?
Its value is 5.

What about the Viability (Staphylococcus epidermis; orally, 100 ppm in feed) of the same compound?
The Viability was 80%.

What about the “Mortality during Cultivation” value (Staphylococcus epidermis; orally, 100 ppm in feed) of the same compound?
The value was 4.

What about the Viability (Staphylococcus epidermis; to fish tanks, 0.01 ppm) of the same compound?
Its Viability is 55%.

And the “Mortality during Cultivation” value (Staphylococcus epidermis; to fish tanks, 0.01 ppm)?
Its value is 9.

What about the Viability (Staphylococcus epidermis; to fish tanks, 0.1 ppm) of the same compound?
Its Viability is 55%.

And the “Mortality during Cultivation” value (Staphylococcus epidermis; to fish tanks, 0.1 ppm)?
Its value is 9.

What about the Viability (Staphylococcus epidermis; to fish tanks, 1.0 ppm) of the same compound?
The Viability was 80%.

What about the “Mortality during Cultivation” value (Staphylococcus epidermis; to fish tanks, 1.0 ppm) of the same compound?
The value was 4.

And the Viability (Staphylococcus epidermis; to fish tanks, 10 ppm)?
The Viability was 80%.

And the “Mortality during Cultivation” value (Staphylococcus epidermis; to fish tanks, 10 ppm)?
Its value is 4.

And the MIC (Streptococcus sp.)?
The MIC was 72.9 µg/mL (≈ 556 µM).

What about the MIC (Pseudomonas sp. [1]) of the same compound?
Its MIC is 42.2 µg/mL (≈ 322 µM).

What about the MIC (Staphylococcus sp. [2]) of the same compound?
Its MIC is 59.6 µg/mL (≈ 455 µM).

What about the MIC (Vibrio anguillarum) of the same compound?
Its MIC is 29.9 µg/mL (≈ 228 µM).

What about the MIC (Edwardsiella tarda) of the same compound?
The MIC was 56 µg/mL (≈ 427 µM).

And the MIC [3]?
The MIC was 62 µg/mL (≈ 473 µM).

And the Viability (Pseudomonas sp. [4]; orally, 0.1 ppm in feed)?
Its Viability is 60%.

And the “Mortality during Cultivation” value (Pseudomonas sp. [4]; orally, 0.1 ppm in feed)?
Its value is 8.

And the Viability (Pseudomonas sp. [4]; [7])?
Its Viability is 60%.

What about the “Mortality during Cultivation” value (Pseudomonas sp. [4]; [7]) of the same compound?
The value was 8.

And the Viability (Pseudomonas sp. [4]; [8])?
Its Viability is 85%.

And the “Mortality during Cultivation” value (Pseudomonas sp. [4]; [8])?
The value was 3.

What about the Viability (Pseudomonas sp. [4]; [9]) of the same compound?
Its Viability is 85%.

What about the “Mortality during Cultivation” value (Pseudomonas sp. [4]; [9]) of the same compound?
Its value is 3.

What about the Viability (Pseudomonas sp. [4]; [10]) of the same compound?
Its Viability is 55%.

And the “Mortality during Cultivation” value (Pseudomonas sp. [4]; [10])?
The value was 9.

What about the Viability (Pseudomonas sp. [4]; [11]) of the same compound?
The Viability was 55%.

What about the “Mortality during Cultivation” value (Pseudomonas sp. [4]; [11]) of the same compound?
Its value is 9.

What about the Viability (Pseudomonas sp. [4]; [12]) of the same compound?
The Viability was 85%.

What about the “Mortality during Cultivation” value (Pseudomonas sp. [4]; [12]) of the same compound?
Its value is 3.

And the Viability (Pseudomonas sp. [4]; to fish tanks, 10 ppm)?
Its Viability is 90%.

What about the “Mortality during Cultivation” value (Pseudomonas sp. [4]; to fish tanks, 10 ppm) of the same compound?
Its value is 2.

And the Viability (Pseudomonas sp. [5]; [13])?
Its Viability is 40%.

What about the Viability (Pseudomonas sp. [5]; [14]) of the same compound?
The Viability was 76%.

And the Viability (Pseudomonas sp. [5]; digestion 5.0 ppm from 4th day of infection, in Sebastes schlegeli)?
Its Viability is 86%.

What about the Viability (Pseudomonas sp. [5]; digestion 10 ppm from 4th day of infection) of the same compound?
The Viability was 84%.

What about the Viability (Staphylococcus sp. [6]; [13]) of the same compound?
The Viability was 50%.

What about the Viability (Staphylococcus sp. [6]; [14]) of the same compound?
The Viability was 76%.

And the Viability (Staphylococcus sp. [6]; digestion 5.0 ppm from 4th day of infection)?
Its Viability is 84%.

What about the Viability (Staphylococcus sp. [6]; digestion 10 ppm from 4th day of infection, Sebastes schlegeli fry) of the same compound?
Its Viability is 86%.

Reference: patent US20010053796A1, “Delta-aminolevulinic acid for prevention and treatment of infection microorganisms and parasite” (priority 2000, published 2001)
